# Source: patent publication US20250296959A1, “B7-H3 TARGETING PEPTIDES AND CONSTRUCTS THEREOF” (Mariana Oncology Inc., priority 2024, published 2025)
# Like-named read-outs stand apart in the source and are kept apart here. Starred links: 1 amine or outer side, 2 acyl side, 3 side chain; linkers in the order of their positions; H or OH if unused. Positions of bridges follow the written chain, without caps; N, C: chain ends. Non-standard residues stand in square brackets, D forms with d. Residues, ends and D or L forms follow the SMILES beside them. Groups on a side chain read outwards from the residue. *: point of attachment. X2 = O=C(O)CN1CCN(CC(=O)O)CCN(CC(=O)NCCOCCOCCOCCOCC(=O)*)CCN(CC(=O)O)CC1; Ala(piperidin-4-yl) = O=C([C@H](CC1CCN([*:3])CC1)N[*:1])[*:2]; DOTA = O=C(O)CN1CCN(CC(=O)O)CCN(CC(=O)*)CCN(CC(=O)O)CC1; Phe(4-NHCONH2) = NC(=O)Nc1ccc(C[C@H](N)C(=O)O)cc1; Trp(5-F) = N[C@@H](Cc1c[nH]c2ccc(F)cc12)C(=O)O; X1 = C[C@@H](c1ccccc1)[C@H](N[*:1])C(=O)[*:2]; 1Nal = N[C@@H](Cc1cccc2ccccc12)C(=O)O; Ala(4-THP) = N[C@@H](CC1CCOCC1)C(=O)O; Val(3-OH) = CC(C)(O)[C@H](N)C(=O)O; hCha = N[C@@H](CCC1CCCCC1)C(=O)O; PEG4 = NCCOCCOCCOCCOCCC(=O)O; Tle = CC(C)(C)[C@H](N)C(=O)O; hLeu = CC(C)CC[C@H](N)C(=O)O
# Assays:
# Calu-6 cell line [1] = assay: Net internalization of [177Lu]Lu-labeled peptide in Calu-6 cells; assay type: cell-based, Human; details: 1 hour, 37° C., glycine pH 2.5 acid wash
# Method: (§1) [^177Lu]LuCl3 was received from venders in HCl solution. For every mCi of [^177Lu]LuCl3 added to the reaction vial (1.5 mL Eppendorf vial), ammonium acetate buffer (0.2 M, pH 4.9, 100 μL, containing 1% w/v ascorbic acid and 6% v/v ethanol) and peptide conjugate (1 nmol) was added. The pH of the solution was determined to be approximately 5 by using pH strips. The reaction vial was incubated at 80° C., 700 RPM for 17-20 minutes. A sample from the reaction was analyzed by RP-HPLC using an Agilent Infinity II 1260 HPLC to determine reaction completion and radiochemical purity. HPLC conditions: Waters XBridge BEH C18 Column, 130 Å, 3.5 μm, 4.6 mm×250 mm; mobile phase: Solvent A=water (with 0.1% formic acid), solvent B=acetonitrile (with 0.1% formic acid). Gradients: 25-45% B in 10 minutes, 45-65% B in 12 minutes, 65-90% in 6 minutes at a flow rate of 0.5 mL/minute. Required amounts of the product were formulated in 1% PBSA for cell studies.
# (§2) The study was conducted using Calu-6 cell line (Table 8)
# (§3) Adherent cell studies: The cells were cultured in appropriate culture media (20 mL) in tissue culture treated T150 flasks at 37° C. and 5% CO2. Adherent cells were detached (60-70% confluent) using 5 mL Versene at 37° C. for 3 minutes. After confirming the viability using countess and count of detached cells using Trypan blue, the cells were centrifuged at 4° C. for 5 minutes (1,000 revolutions per minute). The cell pellet obtained was washed once with PBS and resuspended in 1% PBSA to obtain the desired cell concentration (5 million cells/mL).
# Net internalization: The resuspended cells in 300 μl of 1% PBSA and counted in the gamma counter as “bound fraction” were collected in 1.5 mL Eppendorf tube and pelleted. The pelleted cells were incubated with 300 μl of 50 mM Glycine pH=2.5 for 3 minutes and then pelleted discarding the supernatant. This process was repeated one more time. The pelleted cells were washed with 300 μl of cold 1% PBSA and then resuspended in 300 μl 0.3 M NaOH. This was counted in the gamma counter as “internalized fraction”.
# (§4) Calu-6 Cells are Human-Derived, Non-Engineered Lung Cancer Cell that Express B7-H3.
# Calu-6 cell line [2] = assay: Cell associated (bound) fraction of [177Lu]Lu-labeled peptide in Calu-6 cells; assay type: cell-based, Human; details: 1 hour, 37° C.
# Method: as §1, §2, §3
# Cell associated fraction: Cells were incubated with 300 μL (0.8 μCi) of the incubation buffer (containing radiolabeled peptide [^177Lu]Lu-test peptide) for 1 hour at 37 C (Table 9). Post incubation, the cells were pelleted and washed 2 times using cold PBS+1% BSA. The supernatant and washes were combined and counted together as “unbound fraction” in a gamma counter. The cells were then resuspended in 300 μL of 1% PBS+1% BSA and counted in the gamma counter as cell associated fraction (or bound fraction).
# as §4
# human 4lg B7-H3 = target: T1, human 4lg B7-H3 (Homo sapiens, UniProt Q5ZPR3); assay: Affinity determination by surface plasmon resonance (SPR) to 4Ig B7-H3; details: 4Ig B7-H3
# T1 sequence (Q5ZPR3 29-534): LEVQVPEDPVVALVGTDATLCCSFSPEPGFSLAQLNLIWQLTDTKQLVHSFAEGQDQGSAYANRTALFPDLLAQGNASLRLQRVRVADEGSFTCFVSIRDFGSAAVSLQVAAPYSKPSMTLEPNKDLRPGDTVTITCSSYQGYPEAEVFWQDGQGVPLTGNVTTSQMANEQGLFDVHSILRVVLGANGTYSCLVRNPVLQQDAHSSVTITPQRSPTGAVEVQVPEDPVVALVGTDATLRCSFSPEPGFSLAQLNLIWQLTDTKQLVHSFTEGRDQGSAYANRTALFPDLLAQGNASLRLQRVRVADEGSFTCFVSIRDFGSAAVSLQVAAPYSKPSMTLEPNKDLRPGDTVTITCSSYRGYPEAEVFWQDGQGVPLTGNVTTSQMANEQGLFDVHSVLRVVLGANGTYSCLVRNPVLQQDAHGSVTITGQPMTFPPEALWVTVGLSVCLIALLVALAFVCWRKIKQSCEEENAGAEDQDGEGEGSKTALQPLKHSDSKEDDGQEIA
# [3] = SPR KD—25° C., 25° C. flow cell temperature
# [4] = SPR KD—37° C., 37° C. flow cell temperature
# [5] = read-out: SPR KD—37° C., 37° C. flow cell temperature
smiles,measurement,setting,value
"CC(=O)N[C@@H](CCC(C)C)C(=O)N[C@@H](Cc1ccc(O)cc1)C(=O)N[C@H]1CSSC[C@@H](C(=O)N[C@@H](Cc2cccc3ccccc23)C(=O)N[C@@H](Cc2ccccc2)C(=O)N2CCC[C@H]2C(=O)N[C@H](CCCCNC(=O)COCCOCCOCCOCCNC(=O)CN2CCN(CC(=O)O)CCN(CC(=O)O)CCN(CC(=O)O)CC2)C(N)=O)NC(=O)[C@H](Cc2ccc(O)cc2)NC(=O)[C@H](C(C)C)NC(=O)[C@H](CC(=O)O)NC(=O)[C@H](CC2CCOCC2)NC(=O)[C@H](CCCCN)NC(=O)CNC(=O)[C@H](C(C)(C)C)NC1=O [compound 259, Ac-hLeu-Y-C-Tbg-G-K-ThpA-D-V-Y-C-1Nal-F-Pro-dLys(PEG4-DOTA)-CONH2] (Ac-[hLeu]YC[Tle]GK[Ala(4-THP)]DVYC[1Nal]FP[dK](X2)-NH2; disulfide 3-11)",% net internalization,Calu-6 cell line [1],A (%≤25)
same,% cell associated fraction,Calu-6 cell line [2],B (25<%≤50)
same,Kd,human 4lg B7-H3; [3],< 1 nM
same,Kd,human 4lg B7-H3; [4],1 to 10 nM
"CC(=O)N[C@@H](CCC1CCCCC1)C(=O)N[C@@H](Cc1ccc(O)cc1)C(=O)N[C@H]1CSSC[C@@H](C(=O)N[C@@H](Cc2c[nH]c3ccc(F)cc23)C(=O)N[C@@H](Cc2ccccc2)C(=O)N[C@H](C(=O)N[C@H](CCCCNC(=O)CN2CCN(CC(=O)O)CCN(CC(=O)O)CCN(CC(=O)O)CC2)C(=O)O)C(C)(C)O)NC(=O)[C@H](Cc2ccc(O)cc2)NC(=O)[C@H](C(C)C)NC(=O)[C@H](CC(=O)O)NC(=O)[C@H](CC2CCOCC2)NC(=O)[C@H](CCCCN)NC(=O)CNC(=O)[C@H](C(C)(C)C)NC1=O [compound 368, Ac-hCha-Y-C-Tbg-G-K-ThpA-D-V-Y-C-5FW-F-hydroxyVal-dLys(DOTA)-COOH] (Ac-[hCha]YC[Tle]GK[Ala(4-THP)]DVYC[Trp(5-F)]F[Val(3-OH)][dK](DOTA)-OH; disulfide 3-11)",% net internalization,Calu-6 cell line [1],A (%≤25)
same,% cell associated fraction,Calu-6 cell line [2],B (25<%≤50)
same,Kd,human 4lg B7-H3; [4],< 1 nM
"CC(=O)N[C@@H](CCC(C)C)C(=O)N[C@@H](Cc1ccc(O)cc1)C(=O)N[C@H]1CSSC[C@@H](C(=O)N[C@@H](Cc2c[nH]c3ccc(F)cc23)C(=O)N[C@@H](Cc2ccccc2)C(=O)N[C@H](C(=O)N[C@H](CCCCNC(=O)CN2CCN(CC(=O)O)CCN(CC(=O)O)CCN(CC(=O)O)CC2)C(N)=O)C(C)(C)O)NC(=O)[C@H](Cc2ccc(O)cc2)NC(=O)[C@H](C(C)C)NC(=O)[C@H](CC(=O)O)NC(=O)[C@H](CC2CCOCC2)NC(=O)[C@H](CCCCN)NC(=O)CNC(=O)[C@H](C(C)(C)C)NC1=O [compound 366, Ac-hLeu-Y-C-Tbg-G-K-ThpA-D-V-Y-C-5FW-F-hydroxyVal-dLys(DOTA)-CONH2] (Ac-[hLeu]YC[Tle]GK[Ala(4-THP)]DVYC[Trp(5-F)]F[Val(3-OH)][dK](DOTA)-NH2; disulfide 3-11)",% net internalization,Calu-6 cell line [1],A (%≤25)
same,% cell associated fraction,Calu-6 cell line [2],B (25<%≤50)
same,Kd,human 4lg B7-H3; [4],< 1 nM
"CC(=O)N[C@@H](CCC(C)C)C(=O)N[C@@H](Cc1ccc(O)cc1)C(=O)N[C@H]1CSSC[C@@H](C(=O)N[C@@H](Cc2c[nH]c3ccc(F)cc23)C(=O)N[C@H](C(=O)N[C@H](C(=O)N[C@H](CCC(=O)O)C(N)=O)C(C)(C)O)[C@@H](C)c2ccccc2)NC(=O)[C@H](Cc2ccc(O)cc2)NC(=O)[C@H](C(C)C)NC(=O)[C@H](CC(=O)O)NC(=O)[C@H](CC2CCN(C(=O)CCOCCOCCOCCOCCNC(=O)CN3CCN(CC(=O)O)CCN(CC(=O)O)CCN(CC(=O)O)CC3)CC2)NC(=O)[C@H](CC2CCNCC2)NC(=O)CNC(=O)[C@H](C(C)(C)C)NC1=O [compound 495, Ac-hLeu-Y-C-Tbg-G-PipAla-Pip(PEG4-DOTA)Ala-D-V-Y-C-5FW-[(2S, 3S)beta-Me-Phe]-hydroxyVal-dGlu-CONH2] (Ac-[hLeu]YC[Tle]G[Ala(piperidin-4-yl)][Ala(piperidin-4-yl)]([PEG4-DOTA])DVYC[Trp(5-F)][X1][Val(3-OH)][dE]-NH2; disulfide 3-11)",% net internalization,Calu-6 cell line [1],A (%≤25)
same,% cell associated fraction,Calu-6 cell line [2],C (%>50)
same,Kd,human 4lg B7-H3; [5],< 1 nM
"CC(=O)N[C@@H](CCC(C)C)C(=O)N[C@@H](Cc1ccc(O)cc1)C(=O)N[C@H]1CSSC[C@@H](C(=O)N[C@@H](Cc2c[nH]c3ccc(F)cc23)C(=O)N[C@@H](Cc2ccccc2)C(=O)N[C@H](C(=O)N[C@H](CCCCNC(=O)CN2CCN(CC(=O)O)CCN(CC(=O)O)CCN(CC(=O)O)CC2)C(N)=O)[C@@H](C)O)NC(=O)[C@H](Cc2ccc(O)cc2)NC(=O)[C@H](C(C)C)NC(=O)[C@H](CC(=O)O)NC(=O)[C@H](Cc2ccc(O)cc2)NC(=O)[C@H](CCCCN)NC(=O)CNC(=O)[C@H](C(C)(C)C)NC1=O [compound 76, Ac-hLeu-Y-C-Tbg-G-K-Y-D-V-Y-C-5FW-F-Thr-dLys(DOTA)-CONH2] (Ac-[hLeu]YC[Tle]GKYDVYC[Trp(5-F)]FT[dK](DOTA)-NH2; disulfide 3-11)",% net internalization,Calu-6 cell line [1],A (%≤25)
same,% cell associated fraction,Calu-6 cell line [2],C (%>50)
same,Kd,"human 4lg B7-H3; read-out: SPR KD—25° C., 25° C. flow cell temperature",< 1 nM
"CC(=O)N[C@@H](CCC(C)C)C(=O)N[C@@H](Cc1ccc(O)cc1)C(=O)N[C@H]1CSSC[C@@H](C(=O)N[C@@H](Cc2c[nH]c3ccc(F)cc23)C(=O)N[C@@H](Cc2ccccc2)C(=O)N[C@H](C(=O)N[C@H](CCCCNC(=O)CN2CCN(CC(=O)O)CCN(CC(=O)O)CCN(CC(=O)O)CC2)C(=O)O)C(C)(C)O)NC(=O)[C@H](Cc2ccc(NC(N)=O)cc2)NC(=O)[C@H](C(C)C)NC(=O)[C@H](CC(=O)O)NC(=O)[C@H](CC2CCOCC2)NC(=O)[C@H](CC2CCNCC2)NC(=O)CNC(=O)[C@H](C(C)(C)C)NC1=O [compound 427, Ac-hLeu-Y-C-Tbg-G-PipAla-ThpA-D-V-Aph(Cbm)-C-5FW-F-hydroxyVal-dLys(DOTA)-COOH] (Ac-[hLeu]YC[Tle]G[Ala(piperidin-4-yl)][Ala(4-THP)]DV[Phe(4-NHCONH2)]C[Trp(5-F)]F[Val(3-OH)][dK](DOTA)-OH; disulfide 3-11)",% net internalization,Calu-6 cell line [1],B (25<%≤50)
same,% cell associated fraction,Calu-6 cell line [2],C (%>50)
same,Kd,human 4lg B7-H3; [5],< 1 nM
"CC(=O)N[C@@H](CCC(C)C)C(=O)N[C@@H](Cc1ccc(O)cc1)C(=O)N[C@H]1CSSC[C@@H](C(=O)N[C@@H](Cc2cccc3ccccc23)C(=O)N[C@@H](Cc2ccccc2)C(=O)N[C@H](C(=O)N[C@H](CCCCNC(=O)CN2CCN(CC(=O)O)CCN(CC(=O)O)CCN(CC(=O)O)CC2)C(N)=O)[C@@H](C)O)NC(=O)[C@H](Cc2ccc(O)cc2)NC(=O)[C@H](C(C)C)NC(=O)[C@H](CC(=O)O)NC(=O)[C@H](Cc2ccc(O)cc2)NC(=O)[C@H](CCCCN)NC(=O)CNC(=O)[C@H](C(C)C)NC1=O [compound 158, Ac-hLeu-Y-C-V-G-K-Y-D-V-Y-C-1Nal-F-Thr-dLys(DOTA)-CONH2] (Ac-[hLeu]YCVGKYDVYC[1Nal]FT[dK](DOTA)-NH2; disulfide 3-11)",% net internalization,Calu-6 cell line [1],B (25<%≤50)
same,% cell associated fraction,Calu-6 cell line [2],C (%>50)
same,Kd,human 4lg B7-H3; [3],< 1 nM
